Measurements: US7951592B2, “Compositions and methods for inducing cell dedifferentiation” (The Scripps Research Institute, priority 2003, dated 2011)

Experiments:
C2C12 myoblasts cells = conditions: at the effective concentration (0.5-5 μM)
Protocol: After four days of treatment with reversine, the compound was removed and cells were then grown in osteogenic differentiation medium (ODM) or adipogenic differentiation medium (ADM).

C2C12 myoblast cells = conditions: day four of compound treatment

Which results are given for c1nc2nc(Nc3ccc(N4CCOCC4)cc3)nc(NC3CCCCC3)c2[nH]1 [Compound A, 2-(4-Morpholinoanilino)-6-cyclohexylamino-purine]?
cell death (C2C12 myoblasts cells): no significant cell death; myotube formation (C2C12 myoblast cells; 5 μM): completely inhibited; myogenic specific markers such as MyoD and myosin (C2C12 myoblast cells): began to disappear
